The values below come from PMC4099364, “Comparing Binding Modes of Analogous Fragments Using NMR in Fragment-Based Drug Design: Application to PRDX5” (PLoS ONE, 2014).

One may read the Kd as the constant that tells how readily two partners part at equilibrium.

The experiment concerns the target T1, human peroxiredoxin 5 (PRDX5) (Homo sapiens, UniProt P30044).
T1 construct: 6xHis-tagged, pQE-30, E. coli M15, 15N-labelled for HSQC; reduced with DTT
T1 sequence (P30044 54-214): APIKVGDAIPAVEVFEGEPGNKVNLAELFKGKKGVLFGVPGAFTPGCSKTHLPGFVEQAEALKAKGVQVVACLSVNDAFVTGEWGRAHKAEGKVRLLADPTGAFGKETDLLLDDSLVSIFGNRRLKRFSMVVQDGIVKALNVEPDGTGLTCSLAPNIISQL
Nature of the experiment: […]-HSQC NMR titration (combined CSP fit). In kind it is binding.

Each structure is given as a SMILES string.

On to `Oc1cccc(-c2ccccc2)c1O` [compound 5, 2,3 dihydroxy-biphenyl], for which the dissociation constant (Kd) is 390 ± 50 µM.
